# From patent US20040072915A1, “Novel medicines based on sesquiterpene mixtures” (priority 2000, published 2004)
# Test system: MCF7 cells
# Test: Cell counts of MCF7 cells in culture with F, B or F+B (Example 1)
# Type: cell-based
# Procedure: Cells of line MCF7 are rapidly growing mammary adenocarcinoma cells. The doses tested in the study were 0.1.10^-3 and 0.5.10^-3 M. 1/100 dilutions were made in RPMT just before use and mixed to obtain a homogeneous emulsion at the moment of use. The mean number of cells inoculated was about 10^6 in each test. Test one: search for an effect on MCF7 cells at the dose of 0.5 mM. At the 11th transfer, the following were inoculated one bottle of MCF7 cells for growth, one bottle of MCF7 cells for the control, one bottle with the same number of calls +(F) at 0.5 mM, one bottle with the same number of cells +(F+B) at 0.5 mM, one bottle with the same number of cells +(B) at 0.5 mM. Bottles were placed in the incubator with caps unscrewed and the medium was changed every two days. On day 8, the cells were washed with 5 ml of PBS and freed from the substrate with PBS-EDTA, […] of RPMI+10% FCS and counted with a Malassez counting chamber. Test two: search of an effect on MCF7 cells at a dose of 0.1 mM. Same procedure as above is used but cells were used at the 12th transfer, using 0.1 mM doses of (F), (F+B) and (B).
# [1] = test one, dose 0.5 mM, MCF7 cells counted on day 8, about 10^6 cells inoculated
Structure (SMILES),"appearance of the culture bottle (adhering / floating dead cells) (test one, 0.5 mM, MCF7)",cell counts [1],"alteration of cell adherence in culture (test run at 0.1 mM, MCF7)","cell counts (test two (test at 0.1 mM), line printed as B at 0.5 mM)","appearance of the culture bottle (adhering / floating dead cells) (test two, 0.1 mM, MCF7)","cell counts (test two, dose 0.1 mM, MCF7 cells counted on day 8, about 10^6 cells inoculated)"
"CC(C)=CCC[C@](C)(O)[C@@H]1CC=C(C)CC1 [B, α-bisabolol]",few adhering cells and a large numbers of floating (dead) cells,250 · 10^3,slight,8930 · 10^3,adhering homogeneous layer of cells with several dead cells,
"CC(C)=CCCC(C)=CCCC(C)=CCO [F, Farnesol]",few adhering cells and a large number of floating (dead) cells,370 · 10^3,,,few adhering cells and a large numbers of floating (dead) cells,385 · 10^3
